The source made the active and inactive calls.
Tests used:
[1] = viability loss of HMLE_sh_eGFP cells – cell-based, luminescence, counter-screen for HMLE_sh_ECad selective toxicity project, dose response (AID 463074); type: functional, Homo sapiens;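 further: HMLE human mammary epithelial cells expressing control shRNA against eGFP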
[2] = Luminescence Cell-Based Dose Retest to Confirm Inhibitors of Cancer Stem Cells. [Related pubchem assays (depositor defined):AID2717, AID2721]; type: functional; conditions: Homo sapiens
Keap1/Nrf2 = Keap1/Nrf2 (Homo sapiens, UniProt Q14145); test: disruptors of Keap1 binding to Nrf2 peptide – biochemical, fluorescence polarization, cherry-picked samples, dose response (AID 588683)
Sequence of Keap1/Nrf2 (Q16236 whole entry): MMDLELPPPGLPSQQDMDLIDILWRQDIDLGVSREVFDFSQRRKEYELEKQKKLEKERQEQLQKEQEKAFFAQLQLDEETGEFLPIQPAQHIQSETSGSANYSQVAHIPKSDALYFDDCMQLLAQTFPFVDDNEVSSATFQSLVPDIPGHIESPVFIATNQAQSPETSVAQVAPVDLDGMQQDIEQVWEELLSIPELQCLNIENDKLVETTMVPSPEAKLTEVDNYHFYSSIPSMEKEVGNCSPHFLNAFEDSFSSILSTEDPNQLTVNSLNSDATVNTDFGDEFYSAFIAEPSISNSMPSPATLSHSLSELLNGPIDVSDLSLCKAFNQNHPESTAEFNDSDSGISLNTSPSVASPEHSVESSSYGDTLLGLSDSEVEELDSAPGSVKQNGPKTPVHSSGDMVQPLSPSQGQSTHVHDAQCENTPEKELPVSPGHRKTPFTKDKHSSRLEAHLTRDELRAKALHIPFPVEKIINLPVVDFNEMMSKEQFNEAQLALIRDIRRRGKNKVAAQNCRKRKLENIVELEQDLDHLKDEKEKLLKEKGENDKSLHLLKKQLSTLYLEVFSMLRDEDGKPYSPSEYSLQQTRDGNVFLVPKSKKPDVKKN
Sequence of Keap1/Nrf2 (Q14145 whole entry): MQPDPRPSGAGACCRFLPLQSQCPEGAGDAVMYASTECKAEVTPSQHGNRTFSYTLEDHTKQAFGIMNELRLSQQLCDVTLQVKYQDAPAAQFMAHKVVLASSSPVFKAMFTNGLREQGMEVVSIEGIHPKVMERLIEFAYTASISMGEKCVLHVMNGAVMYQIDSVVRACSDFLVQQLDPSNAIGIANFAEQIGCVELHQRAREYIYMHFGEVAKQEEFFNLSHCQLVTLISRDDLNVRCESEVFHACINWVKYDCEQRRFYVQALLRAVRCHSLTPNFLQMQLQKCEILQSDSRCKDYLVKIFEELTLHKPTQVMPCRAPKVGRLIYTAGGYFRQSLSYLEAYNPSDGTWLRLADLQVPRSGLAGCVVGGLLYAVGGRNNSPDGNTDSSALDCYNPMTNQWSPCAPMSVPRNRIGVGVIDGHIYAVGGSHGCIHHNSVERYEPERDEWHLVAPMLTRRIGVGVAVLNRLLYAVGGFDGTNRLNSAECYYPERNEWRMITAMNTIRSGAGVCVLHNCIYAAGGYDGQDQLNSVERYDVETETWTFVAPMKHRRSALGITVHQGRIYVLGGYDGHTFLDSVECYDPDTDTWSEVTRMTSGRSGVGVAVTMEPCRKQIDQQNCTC

HeLa = test: viability loss in HeLa cells – cell-based, 24 h, cherry-picked samples, cytotoxicity control, dose response (AID 504726); type: functional; conditions: Homo sapiens;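 further: potency for cytotoxicity as loss of luminescence signal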
HEK293 [3] = test: optical interference in Abeta FP readout, dose response, artefact control for IDE activator project, biochemical, fluorescence polarization (AID 588442); type: functional, cell-based; conditions: Homo sapiens
Insulin-degrading enzyme [4] = biological target: T1, Insulin-degrading enzyme (Homo sapiens, UniProt P14735); test: recombinant IDE activation, cell-free – biochemical, fluorescence polarization, counter-screen for IDE activator project, dose response (AID 588681)
T1 sequence (P14735 whole entry): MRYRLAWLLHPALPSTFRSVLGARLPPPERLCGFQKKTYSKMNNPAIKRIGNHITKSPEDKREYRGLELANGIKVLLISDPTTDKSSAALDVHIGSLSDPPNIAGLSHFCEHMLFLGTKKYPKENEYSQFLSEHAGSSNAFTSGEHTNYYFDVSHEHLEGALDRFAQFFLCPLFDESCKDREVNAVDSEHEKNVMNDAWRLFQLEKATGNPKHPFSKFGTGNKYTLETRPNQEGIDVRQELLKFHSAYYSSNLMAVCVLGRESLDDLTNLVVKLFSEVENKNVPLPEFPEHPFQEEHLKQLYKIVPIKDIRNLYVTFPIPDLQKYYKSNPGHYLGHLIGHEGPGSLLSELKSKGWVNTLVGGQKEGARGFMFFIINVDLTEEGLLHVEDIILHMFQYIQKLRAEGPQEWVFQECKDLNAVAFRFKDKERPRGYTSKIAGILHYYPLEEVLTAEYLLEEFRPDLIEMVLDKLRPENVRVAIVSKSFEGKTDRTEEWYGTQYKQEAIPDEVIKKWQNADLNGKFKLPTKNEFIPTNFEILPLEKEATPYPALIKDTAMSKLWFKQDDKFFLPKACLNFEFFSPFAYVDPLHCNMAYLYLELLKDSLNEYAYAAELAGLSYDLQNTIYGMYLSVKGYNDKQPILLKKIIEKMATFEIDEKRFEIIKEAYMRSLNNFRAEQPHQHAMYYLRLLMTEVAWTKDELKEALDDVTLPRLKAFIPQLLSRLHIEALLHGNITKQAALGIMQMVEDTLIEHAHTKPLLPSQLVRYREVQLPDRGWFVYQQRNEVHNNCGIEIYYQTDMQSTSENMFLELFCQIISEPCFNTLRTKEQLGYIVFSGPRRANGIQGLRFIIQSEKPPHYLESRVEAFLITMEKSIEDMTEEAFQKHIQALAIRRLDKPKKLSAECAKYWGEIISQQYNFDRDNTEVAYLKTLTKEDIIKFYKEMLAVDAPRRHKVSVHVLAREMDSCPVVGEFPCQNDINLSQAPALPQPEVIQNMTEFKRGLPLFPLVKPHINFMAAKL

Troponin, cardiac muscle = Troponin, cardiac muscle (Homo sapiens, UniProt P19429+P45379+P63316); test: Fluorescence-based biochemical high throughput dose response assay for activators of the calcium sensitivity of cardiac Regulated Thin Filaments (RTF). [Related pubchem assays (depositor defined):AID493008, AID493018, AID504382, AID504383]; type: protein-complex assay
Insulin-degrading enzyme [5] = biological target: T1, Insulin-degrading enzyme; test: cellular IDE activation of Abeta substrate cleavage – fluorescence polarization, HEK cells, dose response (AID 588439); type: functional, cell-based
ORF 73 = ORF 73 (Human herpesvirus 8, UniProt O40947); test: KSHV LANA DNA-binding disruption – biochemical, fluorescence polarization, cherry-picked samples, dose response (AID 504725); set-up: species or system Human gammaherpesvirus 8;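 further: fluorescence polarization of a labeled DNA duplex reporting LANA DNA binding; potency is for inhibitors that block LANA binding to the DNA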
Sequence of ORF 73 (O40947 whole entry): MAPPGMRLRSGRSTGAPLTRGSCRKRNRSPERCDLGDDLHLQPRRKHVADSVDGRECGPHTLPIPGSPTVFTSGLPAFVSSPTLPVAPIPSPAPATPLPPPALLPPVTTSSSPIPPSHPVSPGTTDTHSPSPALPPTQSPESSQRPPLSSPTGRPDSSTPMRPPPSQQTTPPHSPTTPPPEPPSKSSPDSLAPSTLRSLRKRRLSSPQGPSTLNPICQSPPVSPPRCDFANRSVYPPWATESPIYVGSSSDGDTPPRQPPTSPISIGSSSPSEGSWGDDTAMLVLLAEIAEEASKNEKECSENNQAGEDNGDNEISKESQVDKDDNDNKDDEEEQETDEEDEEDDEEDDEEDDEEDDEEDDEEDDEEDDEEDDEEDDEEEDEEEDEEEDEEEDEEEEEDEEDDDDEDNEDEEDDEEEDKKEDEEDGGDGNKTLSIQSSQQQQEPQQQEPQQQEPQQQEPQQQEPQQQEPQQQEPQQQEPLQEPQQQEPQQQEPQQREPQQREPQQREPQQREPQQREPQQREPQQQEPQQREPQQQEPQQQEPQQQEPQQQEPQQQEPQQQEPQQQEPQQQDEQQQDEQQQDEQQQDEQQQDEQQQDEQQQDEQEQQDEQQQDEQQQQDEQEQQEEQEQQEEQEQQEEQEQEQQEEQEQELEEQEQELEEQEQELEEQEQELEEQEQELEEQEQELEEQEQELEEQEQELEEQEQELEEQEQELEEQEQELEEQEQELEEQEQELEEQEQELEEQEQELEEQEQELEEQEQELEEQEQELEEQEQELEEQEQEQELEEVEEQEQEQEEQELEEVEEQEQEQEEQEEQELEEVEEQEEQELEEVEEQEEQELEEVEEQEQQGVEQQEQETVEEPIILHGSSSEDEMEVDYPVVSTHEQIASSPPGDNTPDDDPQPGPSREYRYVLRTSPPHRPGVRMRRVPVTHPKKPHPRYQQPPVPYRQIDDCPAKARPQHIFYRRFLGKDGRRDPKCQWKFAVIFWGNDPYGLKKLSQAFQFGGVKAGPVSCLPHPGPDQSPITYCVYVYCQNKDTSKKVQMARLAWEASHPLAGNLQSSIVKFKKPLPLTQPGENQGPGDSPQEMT

HEK293 [6] = test: membrane integrity loss in HEK cells – cell-based, fluorescence, cytotoxicity control for IDE activator project, dose response (AID 588440); type: functional; conditions: Homo sapiens;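 further: cytotoxicity by LDH release measuring loss of membrane integrity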
Fibrinogen beta chain [7] = biological target: T2, Fibrinogen beta chain (Homo sapiens, UniProt P02675); test: Fluorescence polarization-based biochemical high throughput dose response assay to identify inhibitors that disrupt the binding of a cyclic peptide (Tn6) to the fibrin proteolytic product D-Dimer and fragment E complex [DD(E )].
T2 sequence (P02675 whole entry, the tested form may be a part): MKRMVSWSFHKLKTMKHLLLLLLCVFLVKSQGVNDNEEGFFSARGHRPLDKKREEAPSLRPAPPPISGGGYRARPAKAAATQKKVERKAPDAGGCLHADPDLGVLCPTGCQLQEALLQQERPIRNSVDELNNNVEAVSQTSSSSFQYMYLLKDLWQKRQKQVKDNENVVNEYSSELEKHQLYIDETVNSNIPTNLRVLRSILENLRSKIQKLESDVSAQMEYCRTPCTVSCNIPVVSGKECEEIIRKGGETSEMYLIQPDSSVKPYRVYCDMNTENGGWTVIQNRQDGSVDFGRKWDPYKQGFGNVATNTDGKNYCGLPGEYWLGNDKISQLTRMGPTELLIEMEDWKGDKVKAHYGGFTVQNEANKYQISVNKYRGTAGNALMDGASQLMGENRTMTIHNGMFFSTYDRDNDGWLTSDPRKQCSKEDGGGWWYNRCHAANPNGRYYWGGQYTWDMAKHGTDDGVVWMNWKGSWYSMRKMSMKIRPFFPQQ

Fibrinogen beta chain [8] = biological target: T2, Fibrinogen beta chain; test: Fluorescence polarization-based biochemical high throughput dose response assay to identify inhibitors that disrupt the binding of a cyclic peptide (Tn7) to the fibrin proteolytic product D-Dimer and fragment E complex [DD(E )].
[9] = restored growth of temperature-sensitive Burl-1 yeast – whole organism, S. cerevisiae, Burl-1 ts mutant, luminescence, counter-screen for SUMOylation pathway inhibitor project, dose response (AID 463199); type: functional
[10] = biological target: T3, Dual specificity protein phosphatase 3 (Homo sapiens, UniProt P51452); test: VHR1 phosphatase inhibitors, biochemical (AID 1878)
T3 sequence (P51452 whole entry): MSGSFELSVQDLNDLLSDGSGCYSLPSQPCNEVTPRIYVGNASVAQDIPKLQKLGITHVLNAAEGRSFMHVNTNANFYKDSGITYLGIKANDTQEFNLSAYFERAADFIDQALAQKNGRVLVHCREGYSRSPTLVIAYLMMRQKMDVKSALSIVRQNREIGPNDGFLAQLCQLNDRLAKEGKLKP

[11] = biological target: T4, Tyrosine-protein phosphatase non-receptor type 7 (Homo sapiens, UniProt P35236); test: redox-active compounds inhibiting HePTP phosphatase – biochemical, fluorescence, mechanism study (AID 2068); type: functional
T4 sequence (P35236 whole entry): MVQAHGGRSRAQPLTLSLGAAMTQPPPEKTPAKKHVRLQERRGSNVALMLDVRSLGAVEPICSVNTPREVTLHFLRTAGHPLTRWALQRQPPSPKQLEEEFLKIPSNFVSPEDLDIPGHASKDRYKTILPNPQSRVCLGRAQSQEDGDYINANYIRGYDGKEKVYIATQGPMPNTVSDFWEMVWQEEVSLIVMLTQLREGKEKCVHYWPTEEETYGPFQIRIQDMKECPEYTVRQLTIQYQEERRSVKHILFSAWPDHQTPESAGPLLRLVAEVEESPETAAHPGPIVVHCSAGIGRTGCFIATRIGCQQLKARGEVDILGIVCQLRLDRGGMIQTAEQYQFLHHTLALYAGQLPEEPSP

[12] = biological target: 26S proteasome non-ATPase regulatory subunit 14 (Homo sapiens, UniProt O00487); test: inhibition of proteasome subunit RPN11 – biochemical, fluorescence polarization, uHTS hits, confirmation (AID 602368); type: functional
Sequence of 26S proteasome non-ATPase regulatory subunit 14 (O00487 whole entry): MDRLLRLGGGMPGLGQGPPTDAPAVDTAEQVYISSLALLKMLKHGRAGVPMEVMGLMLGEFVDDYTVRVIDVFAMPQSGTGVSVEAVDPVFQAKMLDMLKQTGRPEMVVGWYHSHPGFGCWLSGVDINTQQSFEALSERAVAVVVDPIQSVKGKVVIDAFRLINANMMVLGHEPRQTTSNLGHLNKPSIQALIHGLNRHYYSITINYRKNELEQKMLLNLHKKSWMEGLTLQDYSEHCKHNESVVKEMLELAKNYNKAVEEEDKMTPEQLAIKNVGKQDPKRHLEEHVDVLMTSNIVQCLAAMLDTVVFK

[13] = biological target: T3, Dual specificity protein phosphatase 3; test: VHR1 phosphatase inhibitors, primary screen, biochemical, absorbance, uHTS (AID 1654)
[14] = biological target: T5, Dual specificity protein phosphatase 6 (Rattus norvegicus, UniProt Q64346); test: SAR analysis of inhibitors of MKP-3 - Set 2. [Related pubchem assays (depositor defined):AID1055, AID1661, AID425, AID553, AID566]; type: functional
T5 sequence (Q64346 whole entry): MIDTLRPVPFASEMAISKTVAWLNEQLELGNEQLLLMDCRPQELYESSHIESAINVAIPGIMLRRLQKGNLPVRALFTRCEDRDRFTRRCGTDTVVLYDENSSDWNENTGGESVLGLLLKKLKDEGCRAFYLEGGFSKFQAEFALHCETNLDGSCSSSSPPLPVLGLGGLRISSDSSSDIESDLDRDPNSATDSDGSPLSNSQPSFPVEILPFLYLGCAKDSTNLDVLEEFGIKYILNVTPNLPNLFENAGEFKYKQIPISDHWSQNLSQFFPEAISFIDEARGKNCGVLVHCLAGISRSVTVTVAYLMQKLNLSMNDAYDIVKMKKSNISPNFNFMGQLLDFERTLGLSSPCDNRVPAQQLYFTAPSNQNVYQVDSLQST

[15] = biological target: T5, Dual specificity protein phosphatase 6; type: functional
[16] = biological target: 72 kDa type IV collagenase (Homo sapiens, UniProt P08253); test: Dose Response validation of uHTS RPN11 inhibitor hits using a MMP-2 Fluorescence assay.; type: functional
Sequence of 72 kDa type IV collagenase (P08253 whole entry): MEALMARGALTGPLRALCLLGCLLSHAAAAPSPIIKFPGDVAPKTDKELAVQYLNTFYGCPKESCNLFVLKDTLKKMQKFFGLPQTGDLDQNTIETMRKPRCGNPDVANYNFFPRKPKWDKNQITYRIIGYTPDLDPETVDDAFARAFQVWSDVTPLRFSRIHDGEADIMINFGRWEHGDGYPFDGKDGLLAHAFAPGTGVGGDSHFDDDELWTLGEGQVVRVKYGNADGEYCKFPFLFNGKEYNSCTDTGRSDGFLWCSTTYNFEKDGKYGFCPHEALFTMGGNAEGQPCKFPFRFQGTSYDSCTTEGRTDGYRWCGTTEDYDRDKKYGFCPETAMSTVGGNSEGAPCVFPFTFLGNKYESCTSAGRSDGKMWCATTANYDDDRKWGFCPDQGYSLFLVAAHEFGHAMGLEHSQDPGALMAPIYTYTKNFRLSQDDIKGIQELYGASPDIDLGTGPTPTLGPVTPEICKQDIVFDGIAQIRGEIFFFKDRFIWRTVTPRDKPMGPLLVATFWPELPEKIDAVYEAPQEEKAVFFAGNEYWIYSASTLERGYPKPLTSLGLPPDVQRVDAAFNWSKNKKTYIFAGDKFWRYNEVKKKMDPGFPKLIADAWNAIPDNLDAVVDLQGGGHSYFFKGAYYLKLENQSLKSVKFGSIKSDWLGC

[17] = biological target: T4, Tyrosine-protein phosphatase non-receptor type 7; test: SAR analysis of chemical inhibitors of HePTP using a Fluorescent assay - Set 2. [Related pubchem assays (depositor defined):AID1059, AID1077, AID1661, AID2085, AID521]; type: functional
[18] = biological target: T5, Dual specificity protein phosphatase 6; test: inhibition of rat DUSP6 enzyme activity – biochemical, in vitro, primary screen (AID 425)
[19] = biological target: T3, Dual specificity protein phosphatase 3; test: SAR VHR1 Fluorescent Assay for In Vitro dose response studies Set 2. [Related pubchem assays (depositor defined):AID1654, AID1661, AID1878]; type: functional
Prothrombin = Prothrombin (Bos taurus, UniProt P00735); test: thrombin protease inhibitors – biochemical, fluorescence polarization, uHTS hits, dose response (AID 602369); type: functional
[20] = biological target: T3, Dual specificity protein phosphatase 3; test: SAR VHR1 absorbance Assay for In Vitro dose response studies. [Related pubchem assays (depositor defined):AID1654, AID1661, AID1878, AID1992, AID2004]
[21] = biological target: T3, Dual specificity protein phosphatase 3; test: SAR VHR1 Fluorescent Assay for In Vitro dose response studies. [Related pubchem assays (depositor defined):AID1654, AID1661, AID1878, AID1992, AID2004, AID2070, AID2085]; type: functional

Q: For `O=C(Nc1ccccc1N1CCCC1)c1cccc(-c2cc3ccccc3oc2=O)c1`, which AC50 [1] is on record?
A: 41.2 µM (active)

Q: What about the AC50 [2] of the same compound?
A: 1.88 µM (active)

Q: With `COc1ccc2ccccc2c1C(O)c1nccn1C` (stereo unspecified) as the compound, how does the AC50 (Keap1/Nrf2) read?
A: 1.45 µM (active)

Q: What about the AC50 (HeLa) of the same compound?
A: 297 µM (active)

Q: And the EC50 (HEK293 [3])?
A: > 54.7 µM (inactive)

Q: What about the EC50 (Insulin-degrading enzyme [4]) of the same compound?
A: > 54.7 µM (inactive)

Q: What about the EC50 (Troponin, cardiac muscle) of the same compound?
A: 7.99 µM (active)

Q: What about the EC50 (Insulin-degrading enzyme [5]) of the same compound?
A: > 54.7 µM (inactive)

Q: What about the AC50 (ORF 73) of the same compound?
A: 3.41 µM (active)

Q: What about the IC50 (HEK293 [6]) of the same compound?
A: > 89.2 µM (inactive)

Q: What about the IC50 (Fibrinogen beta chain [7]) of the same compound?
A: 13.1 µM (inactive)

Q: What about the IC50 (Fibrinogen beta chain [8]) of the same compound?
A: > 83.3 µM (inactive)

Q: With `CC1CCN(CCCCOc2cccc(C(C)C)c2)CC1` as the compound, how does the AC50 [9] read?
A: 68.4 µM (active)

Q: What does the source list for `O=C(O)c1ccc(NC(=S)NC(=O)c2ccc(-c3ccc(Br)cc3)o2)cc1`?
A: IC50 [10]: 1.88 µM (active); IC50 [11]: 0.227 µM (active); IC50 [12]: 15.2 µM (active); IC50 [13]: 6.72 µM (active); IC50 [14]: > 100 µM (inactive); IC50 [15]: 55.8 µM (active); IC50 [16]: 3.68 µM (active); IC50 [17]: 0.314 µM (active); IC50 [18]: 76.7 µM (active); IC50 [19]: 0.226 µM (active); IC50 (Prothrombin): 60.7 µM (active); IC50 [20]: 3.35 µM (active); IC50 [21]: 3.63 µM (active)

— ChEMBL document CHEMBL1201862, “PubChem BioAssay data set” (2004)
